Source: patent US20240051952A1, “HMOX1 INDUCERS” (Mitobridge Inc., priority 2019, published 2024)

System: Human Heme Oxygenase-1 (HMOX-1)
Assay: ELISA assay to measure human heme oxygenase-1 (HMOX-1) in HepG2 lysate
Format: cell-based
Settings: for Maximum Fold induction: fold change of human HMOX1 protein levels relative to DMSO control, HepG2; for EC50: human HMOX1 protein in HepG2 lysate, ELISA, * = average of 2 or more EC50 determinations, NA = Not Active
Outline: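 HepG2 cells lysed in PBS/0.5% Triton X-100/1 mM EDTA with protease inhibitors; lysate diluted 1:20. Sandwich ELISA: anti-HO-1 capture (8 μg/ml), biotinylated detection antibody (200 ng/ml), streptavidin-HRP, chemiluminescent read. Quantified against 12-point HO-1 standard curve from 20 ng/ml; incubations at 20 °C.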

Row | Structure (SMILES) | Maximum Fold induction | EC50 [µM]
1 | Cn1c(Nc2nc3cc(Cl)ccc3[nH]2)nc2cc(C(=O)O)ccc21 [Example 82, 2-((5-chloro-1H-benzo[d]imidazol-2-yl)amino)-1-methyl-1H-benzo[d]imidazole-5-carboxylic acid] | 29-33 | 
2 | COCCNC(=O)c1ccc2c(c1)nc(Nc1nc3cc(Cl)ccc3[nH]1)n2C [Example 83, 2-((5-chloro-1H-benzo[d]imidazol-2-yl)amino)-N-(2-methoxyethyl)-1-methyl-1H-benzo[d]imidazole-5-carboxamide] | 16-21 | 
3 | CCn1c(Nc2nc3ccc(OC(F)(F)F)cc3o2)nc2cc(C(=O)O)ccc21 [Example 84, 1-ethyl-2-((6-(trifluoromethoxy)benzo[d]oxazol-2-yl)amino)-1H-benzo[d]imidazole-5-carboxylic acid] | 17 | 
4 | CCn1c(Nc2nc3ccc(OC(F)(F)F)cc3o2)nc2cc(C(=O)NCCOC)ccc21 [Example 85, 1-ethyl-N-(2-methoxyethyl)-2-((6-(trifluoromethoxy)benzo[d]oxazol-2-yl)amino)-1H-benzo[d]imidazole-5-carboxamide] |  | 1.3
5 | CCn1c(Nc2nc3ccc(OC(F)(F)F)cc3o2)nc2cc(C(=O)NCCO)ccc21 [Example 86, 1-ethyl-N-(2-hydroxyethyl)-2-((6-(trifluoromethoxy)benzo[d]oxazol-2-yl)amino)-1H-benzo[d]imidazole-5-carboxamide] | 15-32 | 
6 | O=C(O)c1ccc2c(c1)nc(Nc1nc3ccc(OC(F)(F)F)cc3o1)n2CC1CCOC1 (stereo not drawn) [Example 87, 1-((tetrahydrofuran-3-yl)methyl)-2-((6-(trifluoromethoxy)-benzo[d]oxazol-2-yl)amino)-1H-benzo[d]imidazole-5-carboxylic acid] | 21 | 
7 | COCCNC(=O)c1ccc2c(c1)nc(Nc1nc3ccc(OC(F)(F)F)cc3o1)n2CC1CCOC1 (stereo not drawn) [Example 88, N-(2-methoxyethyl)-1-((tetrahydrofuran-3-yl)methyl)-2-((6-(trifluoromethoxy)benzo[d]oxazol-2-yl)amino)-1H-benzo[d]imidazole-5-carboxamide] |  | 1.5
8 | CS(=O)(=O)CCn1c(Nc2nc3ccc(OC(F)(F)F)cc3o2)nc2cc(C(=O)O)ccc21 [Example 89, 1-(2-(methylsulfonyl)ethyl)-2-((6-(trifluoromethoxy)benzo[d]oxazol-2-yl)amino)-1H-benzo[d]imidazole-5-carboxylic acid] | 10 | 
9 | COCCNC(=O)c1ccc2c(c1)nc(Nc1nc3ccc(OC(F)(F)F)cc3o1)n2CCS(C)(=O)=O [Example 90, N-(2-methoxyethyl)-1-(2-(methylsulfonyl)ethyl)-2-((6-(trifluoromethoxy)benzo[d]oxazol-2-yl)amino)-1H-benzo[d]imidazole-5-carboxamide] | 22 | 
10 | Cn1c(Nc2nc3ccc(Br)cc3o2)nc2cc(C(=O)O)ccc21 [Example 91, 2-((6-bromobenzo[d]oxazol-2-yl)amino)-1-methyl-1H-benzo[d]imidazole-5-carboxylic acid] | 17-26 | 
11 | COc1ccc2nc(Nc3nc4cc(C(=O)NCCO)ccc4n3C)oc2c1 [Example 92, N-(2-hydroxyethyl)-2-((6-methoxybenzo[d]oxazol-2-yl)amino)-1-methyl-1H-benzo[d]imidazole-5-carboxamide] | 12-20 | 
12 | O=C(O)c1ccc2c(c1)nc(Nc1nc3ccc(OC(F)(F)F)cc3o1)n2CC1(O)COC1 [Example 93, 1-((3-hydroxyoxetan-3-yl)methyl)-2-((6-(trifluoromethoxy)benzo[d]oxazol-2-yl)amino)-1H-benzo[d]imidazole-5-carboxylic acid] | 22 | 
13 | COCCNC(=O)c1ccc2c(c1)nc(Nc1nc3ccc(OC(F)(F)F)cc3o1)n2CC1(O)COC1 [Example 94, 1-((3-hydroxyoxetan-3-yl)methyl)-N-(2-methoxyethyl)-2-((6-(trifluoromethoxy)benzo[d]oxazol-2-yl)amino)-1H-benzo[d]imidazole-5-carboxamide] | 28 | 
14 | O=C(NCCO)c1ccc2c(c1)nc(Nc1nc3ccc(OC(F)(F)F)cc3o1)n2CC1(O)COC1 [Example 95, N-(2-hydroxyethyl)-1-((3-hydroxyoxetan-3-yl)methyl)-2-((6-(trifluoromethoxy)benzo[d]oxazol-2-yl)amino)-1H-benzo[d]imidazole-5-carboxamide] | 21 | 
15 | Cn1c(Nc2nc3ccc(Cl)cc3o2)nc2cc(C(=O)O)ccc21 [Example 96, 2-((6-chlorobenzo[d]oxazol-2-yl)amino)-1-methyl-1H-benzo[d]imidazole-5-carboxylic acid] | 39-56 | 
16 | Cn1c(Nc2nc3ccc(Cl)cc3o2)nc2cc(C(=O)NCCO)ccc21 [Example 97, 2-((6-chlorobenzo[d]oxazol-2-yl)amino)-N-(2-hydroxyethyl)-1-methyl-1H-benzo[d]imidazole-5-carboxamide] | 33-51 | 
17 | Cn1c(Nc2nc3ccc(OCC(F)(F)F)cc3o2)nc2cc(C(=O)O)ccc21 [Example 98, 1-methyl-2-((6-(2,2,2-trifluoroethoxy)benzo[d]oxazol-2-yl)amino)-1H-benzo[d]imidazole-5-carboxylic acid] | 36-56 | 
18 | COCCNC(=O)c1ccc2c(c1)nc(Nc1nc3ccc(OCC(F)(F)F)cc3o1)n2C [Example 99, N-(2-methoxyethyl)-1-methyl-2-((6-(2,2,2-trifluoroethoxy)benzo[d]oxazol-2-yl)amino)-1H-benzo[d]imidazole-5-carboxamide] | 25-31 | 
19 | Cn1c(Nc2nc3ccc(OCC(F)(F)F)cc3o2)nc2cc(C(=O)NCCO)ccc21 [Example 100, N-(2-hydroxyethyl)-1-methyl-2-((6-(2,2,2-trifluoroethoxy)benzo[d]oxazol-2-yl)amino)-1H-benzo[d]imidazole-5-carboxamide] | 24-35 | 
20 | Cn1c(Nc2nc3ccc(OCCO)cc3o2)nc2cc(C(=O)O)ccc21 [Example 101, 2-((6-(2-hydroxyethoxy)benzo[d]oxazol-2-yl)amino)-1-methyl-1H-benzo[d]imidazole-5-carboxylic acid] | 21 | 
21 | COCCNC(=O)c1ccc2c(c1)nc(Nc1nc3ccc(OCCO)cc3o1)n2C [Example 102, 2-((6-(2-hydroxyethoxy)benzo[d]oxazol-2-yl)amino)-N-(2-methoxyethyl)-1-methyl-1H-benzo[d]imidazole-5-carboxamide] | 26-40 | 
22 | Cn1c(Nc2nc3ccc(OCCO)cc3o2)nc2cc(C(=O)NCCO)ccc21 [Example 103, 2-((6-(2-hydroxyethoxy)benzo[d]oxazol-2-yl)amino)-N-(2-hydroxyethyl)-1-methyl-1H-benzo[d]imidazole-5-carboxamide] | 37-39 | 
23 | Cn1c(Nc2nc3ccc(OCCO)cc3o2)nc2cc(C(=O)NCCOCCO)ccc21 [Example 104, 2-((6-(2-hydroxyethoxy)benzo[d]oxazol-2-yl)amino)-N-(2-(2-hydroxyethoxy)ethyl)-1-methyl-1H-benzo[d]imidazole-5-carboxamide] | 23 | 
24 | Cl.Cn1c(Nc2nc3ccc(OCCO)cc3o2)nc2cc(C(=O)NCCN)ccc21 [Example 105, N-(2-aminoethyl)-2-((6-(2-hydroxyethoxy)benzo[d]oxazol-2-yl)amino)-1-methyl-1H-benzo[d]imidazole-5-carboxamide hydrochloride] | 36 | 
